Experimental findings from PMC6954543, “A window-of-opportunity trial of the CXCR1/2 inhibitor reparixin in operable HER-2-negative breast cancer” (Breast Cancer Research : BCR, 2020) are described below.

Holding throughout (assay type): in vivo, human
A short description of data set [1]: Safety of oral reparixin in window-of-opportunity trial (TEAEs, ANC). The source says:
In this single-arm, monotherapy trial (NCT01861054), female patients aged ≥ 18 years with HER-2-negative operable breast cancer (with a clinical diameter of ≥ 2 cm) that were not candidates for neoadjuvant therapy were recruited. The protocol was amended later to allow inclusion of patients with HER-2-negative operable breast cancer with a clinical diameter of > 1 cm, not eligible for neoadjuvant treatment. Patients needed to have previously untreated, histologically proven (per local investigator assessment) ER+ and/or PgR+ or ER−/PgR− breast cancer (i.e., triple-negative BC (TNBC)) with adequate organ function.
Patients were requested to take reparixin, an investigational orally available CXCR1/2 inhibitor, as two immediate-release 500-mg oral tablets every 6 to 8 h (every 8 h on the days of PK sampling) with food (a light meal or snack), for 21 consecutive days before surgery.
Descriptive statistics were used to summarize safety variables (i.e., adverse events, physical examination, vital signs, ECG, laboratory data, concomitant medications).

The subject of data set [2] is ALDH+ and CD24−/CD44+ CSC. Briefly: CSC evaluation in core biopsy samples by flow cytometry. How it is done: Patients underwent core biopsies at baseline (day − 14 to 0) and at the completion of therapy (day 21). Three to five ≥ 18-gage needle biopsies were taken to measure the changes in CSC populations and pathway markers. If not performed at the completion of treatment, a core biopsy was taken on the day of surgery by the same technique. A sample of the surgically resected tumor tissue was also taken.
CSC populations (CD24^−/CD44^+ and ALDH^+) were measured by flow-cytometry of single-cell suspensions obtained from tumor biopsies (Additional file 1: Supplemental Materials) by using anti-human CD44-APC (clone G44-26) and CD24-FITC (clone ML5, RUO) antibodies (BD Biosciences, Franklin Lakes, NJ), and ALDEFLUOR assay (StemCell Technologies, Inc., Vancouver, BC, Canada), respectively, as previously published.
In the absence of reference data from the literature, signal of activity was defined as a ≥ 20% reduction in CSC (defined by either the ALDH^+− or CD24^−/CD44^+ phenotype) from baseline values as measured by flow cytometry, accompanied by a consistent reduction of the same cell population by IHC. The 20% cutoff was chosen considering only 1 21-day course of reparixin could be administered before surgery. Given the exploratory nature of the study to be conducted in a curable patient population, a sample of 40 patients divided into 2 subgroups of 20 patient each (i.e., ER+ and/or PgR+ and TNBC) was deemed adequate based upon simulations using the Wilson score method to obtain a lower limit for the probability of success. For each subgroup with this sample size, the study will have 80% power to detect a signal of activity (as defined above) observed in ≥ 70% patients as statistically significant at the 0.05 significance level.
To obtain single cell suspension, samples were weighed and observed for appearance, then placed in digestion media and kept at room temperature. The specimens were then rocked for 1 hour at 185 rpm (1.5 hours for surgical specimens), then filtered through 70 µm filter. HBSS+ was added to rinse any residual cells from filter, and the specimens were centrifuged 350xg for 5 minutes at 4 °C. For RBC lysis, cells were resuspended in sterile cell culture grade water, and after 20 seconds, 10XPBS was added. The specimens were then centrifuged at 350xg for 5 minutes at 4 °C. Supernatant was removed. The rest of the specimen was then filtered with 40 µm sterile cell strainer. Cell concentration was measured using Invitrogen Countess.
Background: In flow cytometry, cells or beads pass a laser one at a time.

Data set [3] deals with ALDH1, CD24 and CD44 transcripts. Briefly: CSC markers in core biopsies by RT-PCR. As to conditions: 14 patients. As for the experimental part: Core biopsy samples were placed in RNAlater, suspended in 700 μL of TRIzol® LS Reagent (Invitrogen) and homogenized using Bullet Blender (Next Advance Inc.). Next, RNA was extracted using the miRNeasy mini kit (Qiagen) and processed with the QIACube (Qiagen) automated low-throughput sample prep system. Thereafter, the isolated RNAs were reverse transcribed to cDNA (High Capacity cDNA Reverse Transcription Kit, ABI) and subsequently underwent quantitative RT-PCR (qRT-PCR) using 7900HT Fast Real-Time PCR System (ABI) to detect transcripts of markers associated with CSC (ALDH1, CD44, CD24, Akt, and PI3K), EMT (TWIST1, FOXC2, SNAIL1, SNAIL2, TG2, and ZEB1), epithelial cells (KRT19 and EpCAM), and leukocytes (CD45). We used average delta Ct (dCT) < 2 as a cutoff to determine the relative gene expression level. Since normal tissue was not available to act as the normalizer, we used GAPDH as the endogenous control (dCT = CTtarget − CTendogenous control).

A further data set relates to P62. Briefly: p62 expression on tumor cells by IHC. The settings on record: IHC score 0 to 4. As for the experimental part: All IHC analyses and scoring for extent (0 to 4) and intensity (0 to 3) were performed at the Houston Memorial Hermann Pathology laboratory as previously described. After antigen retrieval (Tris-Cl, pH 9.0), paraffin-embedded sections of sample tumors were incubated for 1 h at room temperature with the following antibodies: anti-human CXCR1 (rabbit polyclonal to CXCR1 - C-terminal, ab137351; Abcam, Cambridge, MA), anti-human CD31 (clone JC70A, #IS610; Dako, Glostrup, Denmark), anti-human p62 (clone SQSTM1/p62, # 5114; Cell Signaling), anti-human AKT (rabbit polyclonal to pan-AKT, # ab8805; Abcam), anti-human FAK (clone pY861, #44-626G; Invitrogen, Qiagen, Carlsbad, CA), anti-human phospho-AKT (clone Ser473 (D9E), #4060; Cell Signaling), anti-human phospho-FAK (clone Y397, #ab4803; Abcam), and anti-human LC3B (clone D11, #3868; Cell Signaling). For the evaluation of extent, the following semi-quantitative score method (0 to 4) was used: 0, no positive cells; 1, 1–25%; 2, 26–50%; 3, 51–75%; and 4, 76–100%.

As to `CC(C)Cc1ccc([C@@H](C)C(=O)NS(C)(=O)=O)cc1` [reparixin], in data set [1] (1000 mg t.i.d. oral, 21 days), the “patients who experienced ≥ 1 TEAE related to the study drug” value is “Ten of 20”. Moreover, in data set [1] (1000 mg t.i.d. oral, 21 days, 20 patients), the “TEAEs leading to discontinuation” value is “no treatment-emergent adverse events (TEAEs) leading to discontinuation”. Also, in data set [1] (20 patients), the “delay of surgery due to study treatment” value is on record as “No patients had to delay surgery” and the serious adverse reactions entry is given as “no serious adverse reactions”. Moreover, the “neutropenia / decrease in absolute neutrophil count (ANC)” value in data set [1] (ANC at weekly intervals, 10/20 patients) is reported as “neither neutropenia of any grade nor any sustained decrease in ANC”. The “grade of TEAEs related to the study drug” value in data set [1] (all related TEAEs) was at most 2 grade. In data set [1] (of 20 patients), the “TEAE grade 1 fatigue” value came out at 8 patients, the TEAE nausea was found to be 5 patients, the “TEAE related to study drug: fatigue” value amounted to 4 patients and the “TEAE related to study drug: flatulence” value is recorded as 2 patients. In data set [1] (of 20 patients), the “TEAE related to study drug: headache” value is on record as 2 patients and the “TEAE related to study drug: nausea” value came to 2 patients. For the same compound, the “serious TEAE” value in data set [1] (of 20 patients, unrelated to the study drug) is given as 1 patient. For the same compound, in data set [2], the “patients with decrease in ALDH+ cells not accompanied by reduction of CD24−/CD44+ cells” value was 2 patients and the “patients with decrease in CD24−/CD44+ CSC not paralleled by decrease in ALDH+ CSC” value is reported as 6 patients. In data set [2] (core biopsy), the “patients without ALDH+ CSC at baseline in whom ALDH+ CSCs were detected at day 21” value was 5/9 and the “patients without CD24−/CD44+ CSC at baseline in whom CD24−/CD44+ CSCs were detected at day 21” value is 6/6. In data set [3], the “patients negative for CSC at both baseline and day 21” value turned out to be 6 patients; the “patients with CSC (transcripts for CD44 but not CD24) at both baseline and day 21” value is on record as “Five”. Also, in data set [3] (1/14 expressed ALDH1 at baseline), the “ALDH1 transcripts at day 21” value was “all patients were negative”. Moreover, the “P62 extent (percentage of positive cells), change baseline to day 21” value in the data set on P62 is “decreased from level 4 to level 3 or lower in the majority of patients”.
